The record followed here is patent US9051280B2, “Tetraline and indane derivatives, pharmaceutical compositions containing them, and their use in therapy” (AbbVie Deutschland GmbH & Co. KG, priority 2010, dated 2015).

The assay addresses human GlyT1c transporter (Homo sapiens (Human), UniProt P48067). The experiment in a line: Radioligand binding assay using recombinant CHO cell membranes expressing human GlyT1. As to conditions: read-out: radioligand binding Kiapp. The method, then: Biological Testing • 1. [^3H]-Glycine uptake into recombinant CHO cells expressing human GlyT1: Human GlyT1c expressing recombinant hGlyT1c—5_CHO cells were plated at 20,000 cells per well in 96 well Cytostar-T scintillation microplates (Amersham Biosciences) and cultured to sub-confluency for 24 h. For glycine uptake assays the culture medium was aspirated and the cells were washed once with 100 μl HBSS (Gibco BRL, #14025-050) with 5 mM L-Alanine (Merck #1007). 80 μl HBSS buffer were added, followed by 10 μl inhibitor or vehicle (10% DMSO) and 10 μl [^3H]-glycine (TRK71, Amersham Biosciences) to a final concentration of 200 nM for initiation of glycine uptake. The plates were placed in a Wallac Microbeta (PerkinElmer) and continuously counted by solid phase scintillation spectrometry during up to 3 hours. Nonspecific uptake was determined in the presence of 10 μM Org24598. IC50 calculations were made by four-parametric logistic nonlinear regression analysis (GraphPad Prism) using determinations within the range of linear increase of [^3H]-glycine incorporation between 60 and 120 min. • 2. Radioligand binding assays using recombinant CHO cell membranes expressing human GlyT1:
Radioligand binding to human GlyT1c transporter-expressing membranes was determined as described in Mezler et al., Molecular Pharmacology 74:1705-1715, 2008.

Chain of human GlyT1c transporter (P48067 whole entry): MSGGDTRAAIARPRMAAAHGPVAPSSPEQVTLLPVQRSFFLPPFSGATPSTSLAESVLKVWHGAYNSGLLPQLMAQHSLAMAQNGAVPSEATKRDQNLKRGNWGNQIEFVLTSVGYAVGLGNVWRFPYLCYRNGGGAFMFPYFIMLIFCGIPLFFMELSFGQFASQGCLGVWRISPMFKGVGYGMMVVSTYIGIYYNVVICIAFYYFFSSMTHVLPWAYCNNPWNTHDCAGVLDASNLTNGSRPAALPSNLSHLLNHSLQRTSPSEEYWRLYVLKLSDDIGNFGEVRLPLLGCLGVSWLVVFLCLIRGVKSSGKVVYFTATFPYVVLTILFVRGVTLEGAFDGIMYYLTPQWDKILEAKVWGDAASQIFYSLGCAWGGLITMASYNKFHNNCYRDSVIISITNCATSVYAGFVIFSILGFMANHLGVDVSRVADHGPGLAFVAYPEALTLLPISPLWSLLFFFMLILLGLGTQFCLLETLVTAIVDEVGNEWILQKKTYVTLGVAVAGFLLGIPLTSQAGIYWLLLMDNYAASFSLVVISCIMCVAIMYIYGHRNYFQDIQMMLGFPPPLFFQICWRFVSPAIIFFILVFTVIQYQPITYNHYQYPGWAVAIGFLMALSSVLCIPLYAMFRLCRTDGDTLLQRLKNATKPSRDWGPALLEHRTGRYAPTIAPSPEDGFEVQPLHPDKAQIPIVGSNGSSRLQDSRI

Consider `CCS(=O)(=O)NCCOc1ccc2c(c1)[C@H](Cc1ccccc1)[C@H](CN)CC2` (stereo in doubt) [Example 195, Ethanesulfonic acid [2-(7-aminomethyl-8-benzyl-5,6,7,8-tetrahydro-naphthalen-2-yloxy)-ethyl]-amide], for which the Ki is not above 100 nM.

`NC[C@@H]1CCc2ccc(OCCNS(=O)(=O)CC3CC3)cc2[C@@H]1Cc1ccccc1` (stereo in doubt) [Example 196, N-[2-(7-Aminomethyl-8-benzyl-5,6,7,8-tetrahydro-naphthalen-2-yloxy)-ethyl]-C-cyclopropyl-methanesulfonamide]: the Ki was not above 100 nM.

In the case of `CCS(=O)(=O)NCCOc1ccc2c(c1)[C@H](Cc1ccccc1)[C@H](CNC)CC2` (stereo in doubt) [Example 198, Ethanesulfonic acid [2-(8-benzyl-7-methylaminomethyl-5,6,7,8-tetrahydro-naphthalen-2-yloxy)-ethyl]-amide], the Ki was not above 100 nM.

In the case of `CNC[C@@H]1CCc2ccc(OCCNS(=O)(=O)CC3CC3)cc2[C@@H]1Cc1ccccc1` (stereo in doubt) [Example 199, N-[2-(8-Benzyl-7-methylaminomethyl-5,6,7,8-tetrahydro-naphthalen-2-yloxy)-ethyl]-C-cyclopropyl-methanesulfonamide], the Ki was not above 100 nM.

As for `CCS(=O)(=O)NCCOc1ccc2c(c1)[C@H](Cc1ccccc1)[C@H](CN1CCC1)CC2` (stereo in doubt) [Example 200, Ethanesulfonic acid [2-(7-azetidin-1-ylmethyl-8-benzyl-5,6,7,8-tetrahydro-naphthalen-2-yloxy)-ethyl]-amide], the Ki was not above 500 nM.

In the case of `O=S(=O)(CC1CC1)NCCOc1ccc2c(c1)[C@H](Cc1ccccc1)[C@H](CN1CCC1)CC2` (stereo in doubt) [Example 201, N-[2-(7-Azetidin-1-ylmethyl-8-benzyl-5,6,7,8-tetrahydro-naphthalen-2-yloxy)-ethyl]-C-cyclopropyl-methanesulfonamide], the Ki was not above 100 nM.

As for `Cn1cnc(S(=O)(=O)NCCOc2ccc3c(c2)[C@H](Cc2ccccc2)[C@H](CN2CCC2)CC3)c1` (stereo in doubt) [Example 202, 1-Methyl-1H-imidazole-4-sulfonic acid [2-(7-azetidin-1-ylmethyl-8-benzyl-5,6,7,8-tetrahydro-naphthalen-2-yloxy)-ethyl]-amide], the Ki is not above 100 nM.

With `Cn1cnc(S(=O)(=O)NCc2ccc3c(c2)[C@H](Cc2ccccc2)[C@H](CN2CCC2)CC3)c1` (stereo in doubt) [Example 203, 1-Methyl-1H-imidazole-4-sulfonic acid (7-azetidin-1-ylmethyl-8-benzyl-5,6,7,8-tetrahydro-naphthalen-2-ylmethyl)-amide], the Ki was not above 100 nM.
